Measured values reported in ChEMBL document CHEMBL5223186, “Agrochemical Lessons for Infectious Disease Research: New Resistance Breaking Antifungal Hits against Candida auris” (ACS Med Chem Lett, 2023).
Values after ≈ are worked out from the molar mass of the structure shown.

Columns and labels:
[1] = tested on: [Candida] auris; experiment: Antifungal activity against Candida auris CDC0381 assessed as lowest compound concentration required to inhibit 50 % growth; type: functional, Candidozyma auris
[2] = tested on: [Candida] auris; experiment: Antifungal activity against Candida auris CDC0381 assessed as lowest compound concentration required to inhibit 90 % growth; type: functional, Candidozyma auris
[3] = tested on: [Candida] auris; experiment: Antifungal activity against Candida auris CDC0381 assessed as growth inhibition; type: functional, organism-based; conditions: Candidozyma auris
[4] = tested on: [Candida] auris; experiment: Antifungal activity against Candida auris CDC0385 assessed as lowest compound concentration required to inhibit 50 % growth; type: functional, Candidozyma auris
[5] = tested on: [Candida] auris; experiment: Antifungal activity against Candida auris CDC0385 assessed as lowest compound concentration required to inhibit 90 % growth; type: functional, Candidozyma auris
[6] = tested on: [Candida] auris; experiment: Antifungal activity against Candida auris CDC0385 assessed as growth inhibition; type: functional, organism-based; conditions: Candidozyma auris
[7] = tested on: [Candida] auris; experiment: Antifungal activity against Candida auris ATCC 6258 assessed as lowest compound concentration required to inhibit 50 % growth; type: functional, Candidozyma auris
[8] = tested on: [Candida] auris; experiment: Antifungal activity against Candida auris ATCC 6258 assessed as lowest compound concentration required to inhibit 90 % growth; type: functional, Candidozyma auris
[9] = tested on: [Candida] auris; experiment: Antifungal activity against Candida auris ATCC 6258 assessed as growth inhibition; type: functional, organism-based; conditions: Candidozyma auris
[10] = Cytotoxicity against human HepG2 cells assessed as growth inhibition by XTT assay; type: toxicity, cell-based
[11] = Selectivity index, ratio of IC50 for cytotoxicity against human HepG2 cells to IC50 for antifungal activity against Candida auris CDC0385; type: toxicity, cell-based; conditions: read-out: Ratio IC50

Compound | INH [1] | INH [2] | IC50 [3] | IC90 [3] | INH [4] | INH [5] | IC50 [6] | IC90 [6] | INH [7] | INH [8] | IC50 [9] | IC90 [9] | IC50 [10] | selectivity ratio [11]
Clc1cc2c(c3ncccc13)OCN(CCc1ccccc1)C2 | 4 µg/mL | 4 µg/mL | 2 µg/mL (≈ 6.16 µM) | 2.13 µg/mL (≈ 6.56 µM) | 4 µg/mL | 4 µg/mL | 2.14 µg/mL (≈ 6.59 µM) | 3.88 µg/mL (≈ 11.9 µM) | 2 µg/mL | 4 µg/mL | 1.98 µg/mL (≈ 6.1 µM) | 2.2 µg/mL (≈ 6.77 µM) | 22.7 µM | 10.6
COCc1ncnc(NC(C)CC#Cc2ccc(Oc3ccc(C(F)(F)F)cn3)cc2)c1OC (stereo not given) | <0.125 µg/mL | 1 µg/mL |  |  | 0.5 µg/mL | 8 µg/mL | 0.45 µg/mL (≈ 0.952 µM) | 4.61 µg/mL (≈ 9.76 µM) | >64 µg/mL | >64 µg/mL |  |  | > 100 µM | > 222
C[C@@H](c1ncncc1F)[C@](O)(Cn1cncn1)c1ccc(F)cc1F [VORICONAZOLE] | 0.016 µg/mL | 4 µg/mL | 0.01 µg/mL (≈ 0.0286 µM) | 0.55 µg/mL (≈ 1.57 µM) | 4 µg/mL | >4 µg/mL | 2.94 µg/mL (≈ 8.42 µM) | > 4 µg/mL | 0.25 µg/mL | 1 µg/mL | 0.2 µg/mL (≈ 0.573 µM) | 0.76 µg/mL (≈ 2.18 µM) |  | 
Cc1cc(Nc2ccccc2C)n(-c2nc(=O)cc(C)[nH]2)n1 | 1 µg/mL | 4 µg/mL | 0.85 µg/mL (≈ 2.88 µM) | 1.93 µg/mL (≈ 6.53 µM) | 2 µg/mL | 8 µg/mL | 1.45 µg/mL (≈ 4.91 µM) | 6.05 µg/mL (≈ 20.5 µM) | 2 µg/mL | 4 µg/mL | 1.42 µg/mL (≈ 4.81 µM) | 2.38 µg/mL (≈ 8.06 µM) | > 100 µM | > 69
NC1CCCc2ccc(C3=NSC(c4cc(Cl)c(F)c(Cl)c4)(C(F)(F)F)C3)cc21 (stereo not given) | 2 µg/mL | 2 µg/mL | 1.43 µg/mL (≈ 3.09 µM) | 1.71 µg/mL (≈ 3.69 µM) | 4 µg/mL | 4 µg/mL | 2.09 µg/mL (≈ 4.51 µM) | 2.3 µg/mL (≈ 4.96 µM) | 4 µg/mL | 4 µg/mL | 2.11 µg/mL (≈ 4.55 µM) | 2.62 µg/mL (≈ 5.65 µM) | 13.2 µM | 6.29
Fc1ccc2[nH]cc(-c3ccsc3Br)c2c1 | 16 µg/mL | 16 µg/mL | 9.85 µg/mL (≈ 33.3 µM) | 15.7 µg/mL (≈ 53 µM) | 32 µg/mL | >64 µg/mL | 29.3 µg/mL (≈ 98.9 µM) | > 64 µg/mL | 64 µg/mL | >64 µg/mL | 32.2 µg/mL (≈ 109 µM) | > 64 µg/mL | > 100 µM | > 3.41
C[C@@H]1[C@H](O)[C@@H](C)/C=C/C=C/C=C/C=C/C=C/C=C/C=C/[C@H](O[C@@H]2O[C@H](C)[C@@H](O)[C@H](N)[C@@H]2O)C[C@@H]2O[C@](O)(C[C@@H](O)C[C@@H](O)[C@H](O)CC[C@@H](O)C[C@@H](O)CC(=O)O[C@H]1C)C[C@H](O)[C@H]2C(=O)O [AMPHOTERICIN B] | 0.25 µg/mL | 0.5 µg/mL | 0.2 µg/mL (≈ 0.216 µM) | 0.39 µg/mL (≈ 0.422 µM) | 1 µg/mL | 1 µg/mL | 0.54 µg/mL (≈ 0.584 µM) | 0.83 µg/mL (≈ 0.898 µM) | 0.5 µg/mL | 1 µg/mL | 0.49 µg/mL (≈ 0.53 µM) | 0.54 µg/mL (≈ 0.584 µM) |  | 
CCCCCn1nc(-c2ccc(Cl)cc2)cnc1=O | 1 µg/mL | 4 µg/mL | 0.72 µg/mL (≈ 2.59 µM) | 1.59 µg/mL (≈ 5.72 µM) | 2 µg/mL | 4 µg/mL | 1.8 µg/mL (≈ 6.48 µM) | 3.64 µg/mL (≈ 13.1 µM) | 1 µg/mL | 2 µg/mL | 0.76 µg/mL (≈ 2.74 µM) | 1.05 µg/mL (≈ 3.78 µM) | 2.07 µM | 1.5
C1CCC(C(CC2CCCCN2)C2CCCCC2)CC1 (stereo not given) [PERHEXILINE] |  |  |  |  |  |  |  |  |  |  |  |  | 11.3 µM | 
